According to patent US10696726B2, “Insulin-incretin conjugates” (INDIANA UNIVERSITY RESEARCH AND TECHNOLOGY CORPORATION, priority 2013, dated 2020):
Values joined by “and” are separate entries in the source; they are usually repeats but may differ in a detail not shown here. Equal values may be shown once.

Legend:
human IGF-1 receptor = human IGF-1 receptor (Homo sapiens, UniProt P08069); assay: IGF-1 receptor binding assay (competition, scintillation proximity); conditions: Table 3, relative to IGF-1 in the same test
human IGF-1 receptor, sequence (P08069 31-736 limits assumed): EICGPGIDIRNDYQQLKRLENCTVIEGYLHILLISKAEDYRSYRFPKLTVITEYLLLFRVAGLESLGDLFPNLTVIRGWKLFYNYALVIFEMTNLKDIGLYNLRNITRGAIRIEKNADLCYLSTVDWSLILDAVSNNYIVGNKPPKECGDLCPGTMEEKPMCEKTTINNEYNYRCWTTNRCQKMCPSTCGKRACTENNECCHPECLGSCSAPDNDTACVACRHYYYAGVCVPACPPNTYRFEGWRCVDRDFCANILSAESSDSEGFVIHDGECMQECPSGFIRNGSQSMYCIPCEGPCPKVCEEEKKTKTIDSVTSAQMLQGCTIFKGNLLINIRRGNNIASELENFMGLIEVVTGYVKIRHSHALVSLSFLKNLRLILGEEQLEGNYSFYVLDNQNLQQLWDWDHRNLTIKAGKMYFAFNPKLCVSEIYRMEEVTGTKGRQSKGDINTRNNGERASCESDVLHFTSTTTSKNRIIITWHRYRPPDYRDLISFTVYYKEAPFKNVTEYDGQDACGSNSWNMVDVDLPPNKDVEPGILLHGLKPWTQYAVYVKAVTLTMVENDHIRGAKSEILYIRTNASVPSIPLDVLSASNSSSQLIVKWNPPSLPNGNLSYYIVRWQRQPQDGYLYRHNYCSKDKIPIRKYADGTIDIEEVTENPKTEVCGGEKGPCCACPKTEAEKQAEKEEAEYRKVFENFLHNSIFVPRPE
human IGF-1 receptor, sequence (P08069 741-1367 partner limits assumed): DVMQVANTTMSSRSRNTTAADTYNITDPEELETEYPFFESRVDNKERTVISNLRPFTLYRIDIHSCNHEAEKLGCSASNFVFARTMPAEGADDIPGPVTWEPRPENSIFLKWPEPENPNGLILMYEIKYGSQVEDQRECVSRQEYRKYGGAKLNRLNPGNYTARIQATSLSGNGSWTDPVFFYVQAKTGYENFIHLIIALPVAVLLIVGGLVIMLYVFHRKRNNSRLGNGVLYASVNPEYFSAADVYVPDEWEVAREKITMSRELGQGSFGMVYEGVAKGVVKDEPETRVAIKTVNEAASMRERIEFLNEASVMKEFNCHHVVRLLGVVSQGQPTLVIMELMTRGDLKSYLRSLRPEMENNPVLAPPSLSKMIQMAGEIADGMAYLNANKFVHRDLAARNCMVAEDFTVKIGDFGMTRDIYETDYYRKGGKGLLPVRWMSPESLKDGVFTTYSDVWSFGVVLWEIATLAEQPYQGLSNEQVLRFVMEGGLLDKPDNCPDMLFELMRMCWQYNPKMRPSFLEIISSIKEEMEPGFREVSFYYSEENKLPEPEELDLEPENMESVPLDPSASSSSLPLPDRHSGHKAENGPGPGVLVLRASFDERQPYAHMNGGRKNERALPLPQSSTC

insulin receptor [1] = biological target: T1, insulin receptor (Homo sapiens, UniProt P06213); assay: Insulin receptor binding assay (competition, scintillation proximity); conditions: for Ratio: Table 3, IGF-1 receptor IC50 over insulin receptor IC50
glucagon receptor = biological target: T2, glucagon receptor (Homo sapiens, UniProt P47871); assay: Glucagon functional assay, cAMP synthesis (luciferase reporter, HEK293 cells); format: cell-based; conditions: FIG. 12
T2 construct: expressed in transfected cells; host or cells: HEK293

insulin receptor [2] = biological target: T1, insulin receptor; assay: Insulin receptor phosphorylation assay in receptor transfected HEK293 cells; format: cell-based; set-up: expressed in transfected cells; host or cells: HEK293; conditions: FIGS. 10 and 11

CC[C@H](C)[C@H](NC(=O)CN)C(=O)N[C@H](C(=O)N[C@@H](CC(=O)O)C(=O)N[C@@H](CCC(=O)O)C(=O)N[C@H]1CSSC[C@@H]2NC(=O)[C@H](CO)NC(=O)[C@H](CCCNC(=N)N)NC(=O)[C@H](Cc3ccccc3)NC(=O)[C@H](CSSC[C@H](NC(=O)[C@H](CC(C)C)NC(=O)[C@H](Cc3c[nH]cn3)NC(=O)[C@H](CCC(N)=O)NC(=O)[C@H](CC(N)=O)NC(=O)[C@@H](NC(=O)[C@@H](N)Cc3ccccc3)C(C)C)C(=O)NCC(=O)N[C@@H](CO)C(=O)N[C@@H](Cc3c[nH]cn3)C(=O)N[C@@H](CC(C)C)C(=O)N[C@@H](C(C)C)C(=O)N[C@@H](CCC(=O)O)C(=O)N[C@@H](C)C(=O)N[C@@H](CC(C)C)C(=O)N[C@@H](Cc3ccc(O)cc3)C(=O)N[C@@H](CC(C)C)C(=O)N[C@@H](C(C)C)C(=O)N[C@H](C(=O)NCC(=O)N[C@@H](CC(=O)O)C(=O)N[C@@H](CCCNC(=N)N)C(=O)NCC(=O)N[C@@H](Cc3ccccc3)C(=O)N[C@@H](Cc3ccc(O)cc3)C(=O)N[C@@H](Cc3ccccc3)C(=O)N[C@@H](CC(N)=O)C(=O)N[C@@H](CCCCN)C(=O)N3CCC[C@H]3C(=O)N[C@H](C(N)=O)[C@@H](C)O)CSSC[C@@H](C(=O)N[C@@H](C)C(N)=O)NC(=O)[C@H](Cc3ccc(O)cc3)NC(=O)[C@H](CCSC)NC(=O)[C@H](CCC(=O)O)NC(=O)[C@H](CC(C)C)NC(=O)[C@H](CCCNC(=N)N)NC(=O)[C@H](CCCNC(=N)N)NC(=O)[C@H](CC(C)C)NC(=O)[C@H](CC(=O)O)NC2=O)NC1=O)C(C)C [IGF-1 A: In (1-17)-IGF-1 B (18-30)]
IGF-1 Receptor % IGF-1 (in test) (human IGF-1 receptor): 0.9%
Ratio (insulin receptor [1]): 22.6
Insulin Receptor % insulin (in test) (insulin receptor [1]; Table 3, relative to insulin in the same test): 14.0% and 11.3% and 20.1%
Insulin Receptor % native insulin activity (0.6 nM) (insulin receptor [1]; Table 3, relative to native insulin taken as 0.6 nM): 21.7% and 22.5% and 24.2%

CC[C@H](C)[C@H](NC(=O)CN)C(=O)N[C@H](C(=O)N[C@@H](CC(=O)O)C(=O)N[C@@H](CCC(=O)O)C(=O)N[C@H]1CSSC[C@@H]2NC(=O)[C@H](CO)NC(=O)[C@H](CCCNC(=N)N)NC(=O)[C@H](Cc3ccccc3)NC(=O)[C@H](CSSC[C@H](NC(=O)[C@H](CC(C)C)NC(=O)[C@@H](NC(=O)[C@H](CCC(=O)O)NC(=O)[C@@H]3CCCN3C(=O)CN)[C@@H](C)O)C(=O)NCC(=O)N[C@@H](C)C(=O)N[C@@H](CCC(=O)O)C(=O)N[C@@H](CC(C)C)C(=O)N[C@@H](C(C)C)C(=O)N[C@@H](CC(=O)O)C(=O)N[C@@H](C)C(=O)N[C@@H](CC(C)C)C(=O)N[C@@H](Cc3ccc(O)cc3)C(=O)N[C@@H](CC(C)C)C(=O)N[C@@H](C(C)C)C(=O)N[C@H](C(=O)NCC(=O)N[C@@H](CC(=O)O)C(=O)N[C@@H](CCCNC(=N)N)C(=O)NCC(=O)N[C@@H](Cc3ccccc3)C(=O)N[C@@H](Cc3ccc(O)cc3)C(=O)N[C@@H](Cc3ccccc3)C(=O)N[C@@H](CC(N)=O)C(=O)N[C@@H](CCCCN)C(=O)N3CCC[C@H]3C(=O)N[C@H](C(N)=O)[C@@H](C)O)CSSC[C@@H](C(=O)N[C@@H](C)C(N)=O)NC(=O)[C@H](Cc3ccc(O)cc3)NC(=O)[C@H](CCSC)NC(=O)[C@H](CCC(=O)O)NC(=O)[C@H](CC(C)C)NC(=O)[C@H](CCCNC(=N)N)NC(=O)[C@H](CCCNC(=N)N)NC(=O)[C@H](CC(C)C)NC(=O)[C@H](CC(=O)O)NC2=O)NC1=O)C(C)C [IGF1 (Y^B16L^B17)]
insulin receptor binding relative to native insulin (in words) (insulin receptor [1]; FIGS. 2-4, Tables 1 and 2): highly potent agonists of the insulin receptor
% of Insulin Activity (insulin receptor [1]; Table 2, relative to Insulin Standard): 262%

GLP-1: native GLP-1: GLP-1(7-36) amide SEQ ID NO: 703 or GLP-1(7-37) acid SEQ ID NO: 704 [reference compound]
in vitro glucagon receptor activity (EC50 values, in words) (glucagon receptor): poor activity at the glucagon receptor
in vitro insulin receptor activity (EC50 values, in words) (insulin receptor [2]): poor activity at the insulin receptor

CC[C@H](C)[C@H](NC(=O)CN)C(=O)N[C@H](C(=O)N[C@@H](CC(=O)O)C(=O)N[C@@H](CCC(=O)O)C(=O)N[C@H]1CSSC[C@@H]2NC(=O)[C@H](CO)NC(=O)[C@H](CCCNC(=N)N)NC(=O)[C@H](Cc3ccccc3)NC(=O)[C@H](CSSC[C@H](NC(=O)[C@H](CC(C)C)NC(=O)[C@@H](NC(=O)[C@H](CCC(=O)O)NC(=O)[C@@H]3CCCN3C(=O)CN)[C@@H](C)O)C(=O)NCC(=O)N[C@@H](CO)C(=O)N[C@@H](Cc3c[nH]cn3)C(=O)N[C@@H](CC(C)C)C(=O)N[C@@H](C(C)C)C(=O)N[C@@H](CCC(=O)O)C(=O)N[C@@H](C)C(=O)N[C@@H](CC(C)C)C(=O)N[C@@H](Cc3ccc(O)cc3)C(=O)N[C@@H](CC(C)C)C(=O)N[C@@H](C(C)C)C(=O)N[C@H](C(=O)NCC(=O)N[C@@H](CC(=O)O)C(=O)N[C@@H](CCCNC(=N)N)C(=O)NCC(=O)N[C@@H](Cc3ccccc3)C(=O)N[C@@H](Cc3ccc(O)cc3)C(=O)N[C@@H](Cc3ccccc3)C(=O)N[C@@H](CC(N)=O)C(=O)N[C@@H](CCCCN)C(=O)N3CCC[C@H]3C(=O)N[C@H](C(N)=O)[C@@H](C)O)CSSC[C@@H](C(=O)N[C@@H](C)C(N)=O)NC(=O)[C@H](Cc3ccc(O)cc3)NC(=O)[C@H](CCSC)NC(=O)[C@H](CCC(=O)O)NC(=O)[C@H](CC(C)C)NC(=O)[C@H](CCCNC(=N)N)NC(=O)[C@H](CCCNC(=N)N)NC(=O)[C@H](CC(C)C)NC(=O)[C@H](CC(=O)O)NC2=O)NC1=O)C(C)C
Ratio (insulin receptor [1]): 82.6
